This is an account of results in ChEMBL document CHEMBL1123884, “Preparation and antileukemic screening of some new 6'-deoxyhexopyranosyladenine nucleosides” (J Med Chem, 1987).

Assay [1] has as its system L1210. Briefly: Antileukemic activity against L1210 cells in culture at a concentration of 5 X 10e-4 M; extremely weak. It counts as functional, cell-based. The following applies: Mus musculus.
Assay [2] relates to L1210. Briefly: Antileukemic activity against L1210 cells in culture at a concentration of 10e-4 M; Inactive. The format is functional, cell-based, Mus musculus.
Assay [3] has as its system L1210. Put plainly: Antileukemic activity against L1210 cells in culture at a concentration of 10e-4 M; Active. The format is functional, cell-based, Mus musculus.

Consider `Nc1ncnc2c1ncn2C1OCC(O)C(O)C1O` (stereo unspecified), for which the inhibition entry in the assay on L1210 [1] is listed as “Extremely weak”.
Take `C[C@@H]1O[C@@H](n2cnc3c(N)ncnc32)[C@H](O)[C@H](O)[C@@H]1O`: the IC50 entry with L1210 [2] is listed as “Not Active”.
Same read-out and setting: the value for `C[C@H]1O[C@@H](n2cnc3c(N)ncnc32)[C@H](O)[C@@H](O)[C@@H]1O` was “Not Active”; that for `Nc1ncnc2c1ncn2C1OC(CO)C(O)C(O)C1O` (stereo unspecified) was “Not Active”.
Regarding `C[C@H]1O[C@@H](n2cnc3c(N)ncnc32)[C@H](O)[C@@H](O)[C@H]1O`, in the assay with L1210 [3], the IC50 result is “Active”.
Consider `C[C@@H]1O[C@@](CO)(n2cnc3c(N)ncnc32)[C@@H](O)[C@@H]1O`, for which the IC50 result in the assay with L1210 [2] is “Not Active”.
